Reference: patent publication US11357230B2, “Herbicidal amides” (FMC Corporation, priority 2017, dated 2022)

What was measured:
Format in all cases: in vivo
kochia (Kochia scoparia) [1] = assay: Test A postemergence, kochia; conditions: approximately 10 d
Summary of the method: (§1)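 Compounds were applied before emergence to seeded pots of loam and sand, or after emergence to plants 2 to 10 cm tall in the same soil. Injury was rated visually about 10 d later relative to untreated controls, where 100 indicates complete control.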

[2] = system: barnyardgrass (Echinochloa crus-galli); assay: Test B flooded paddy test, barnyardgrass; conditions: 250 g ai/ha, Flood (paddy water), 13 to 15 d
Summary of the method: (§2)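 Plants at the 2-leaf stage were flooded to 3 cm above soil, and test compounds were applied directly into the paddy water, which was held at that depth throughout. After 13 to 15 d in a greenhouse, injury was rated visually against untreated controls on a 0–100 scale (0 no effect, 100 complete control).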

corn (Zea mays) = assay: Test A postemergence, corn; conditions: approximately 10 d
Summary of the method: as §1

rice (Oryza sativa) = assay: Test B flooded paddy test, rice; conditions: 250 g ai/ha, Flood (paddy water), 13 to 15 d
Summary of the method: as §2

[3] = system: wheat (Triticum aestivum); assay: Test A postemergence, wheat; conditions: approximately 10 d
Summary of the method: as §1

[4] = system: galium (catchweed bedstraw, Galium aparine); assay: Test A postemergence, galium; conditions: approximately 10 d
Summary of the method: as §1

[5] = system: pigweed (Amaranthus retroflexus); assay: Test A preemergence, pigweed; conditions: approximately 10 d
Summary of the method: (§3)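 Visual ratings from 0 (no effect) to 100 (complete control) compared treated pots with untreated ones roughly 10 d after application. Chemicals with a surfactant in a non-phytotoxic solvent were sprayed onto soil after seeding into loam plus sand, or onto plants at the one- to two-leaf stage grown in the same mix.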

[6] = system: ragweed (common ragweed, Ambrosia elatior); assay: Test A postemergence, ragweed; conditions: approximately 10 d
Summary of the method: as §1

kochia (Kochia scoparia) [7] = assay: Test A preemergence, kochia; conditions: approximately 10 d
Summary of the method: as §3

[8] = system: barnyardgrass (Echinochloa crus-galli); assay: Test A preemergence, barnyardgrass; conditions: approximately 10 d
Summary of the method: as §3

[9] = system: foxtail, green (green foxtail, Setaria viridis); assay: Test A preemergence, green foxtail; conditions: approximately 10 d
Description: (§4) Seeds of plant species selected from barnyardgrass (Echinochloa crus-galli), kochia (Kochia scoparia), ragweed (common ragweed, Ambrosia elatior), ryegrass, Italian (Italian ryegrass, Lolium multiflorum), foxtail, green (green foxtail, Setaria viridis), and pigweed (Amaranthus retroflexus) were planted into a blend of loam soil and sand and treated preemergence with a directed soil spray using test chemicals formulated in a non-phytotoxic solvent mixture which included a surfactant. At the same time, plants selected from these weed species and also wheat (Triticum aestivum), corn (Zea mays), blackgrass (Alopecurus myosuroides), and galium (catchweed bedstraw, Galium aparine) were planted in pots containing the same blend of loam soil and sand and treated with postemergence applications of test chemicals formulated in the same manner. Plants ranged in height from 2 to 10 cm and were in the one- to two-leaf stage for the postemergence treatment. Treated plants and untreated controls were maintained in a greenhouse for approximately 10 d, after which time all treated plants were compared to untreated controls and visually evaluated for injury. Plant response ratings, summarized in Table A, are based on a 0 to 100 scale where 0 is no effect and 100 is complete control. A dash (-) response means no test result.

[10] = system: sedge, umbrella (small-flower umbrella sedge, Cyperus difformis); assay: Test B flooded paddy test, umbrella sedge; conditions: 250 g ai/ha, Flood (paddy water), 13 to 15 d
Summary of the method: as §2

[11] = system: barnyardgrass (Echinochloa crus-galli); assay: Test A postemergence, barnyardgrass; conditions: approximately 10 d
Summary of the method: as §1

[12] = system: blackgrass (Alopecurus myosuroides); assay: Test A postemergence, blackgrass; conditions: approximately 10 d
Summary of the method: as §1

[13] = system: ducksalad (Heteranthera limosa); assay: Test B flooded paddy test, ducksalad; conditions: 250 g ai/ha, Flood (paddy water), 13 to 15 d
Summary of the method: as §2

[14] = system: ragweed (common ragweed, Ambrosia elatior); assay: Test A preemergence, ragweed; conditions: approximately 10 d
Summary of the method: as §3

[15] = system: ryegrass, Italian (Italian ryegrass, Lolium multiflorum); assay: Test A postemergence, Italian ryegrass; conditions: approximately 10 d
Summary of the method: as §1

[16] = system: foxtail, green (green foxtail, Setaria viridis); assay: Test A postemergence, green foxtail; conditions: approximately 10 d
Description: as §4

[17] = system: pigweed (Amaranthus retroflexus); assay: Test A postemergence, pigweed; conditions: approximately 10 d
Summary of the method: as §1

[18] = system: ryegrass, Italian (Italian ryegrass, Lolium multiflorum); assay: Test A preemergence, Italian ryegrass; conditions: approximately 10 d
Summary of the method: as §3

CN1C[C@H](c2ccc(C(F)(F)F)cc2)[C@@H](C(=O)Nc2cccc(F)c2F)C1=NNC(=O)C(C)(C)C [Compound 1, 2-[(3R,4S)-3-[[(2,3-difluorophenyl)amino]carbonyl]-1-methyl-4-[4-(trifluoromethyl)phenyl]-2-pyrrolidinylidene]hydrazide 2,2-dimethylpropanoic Acid]
Plant response rating (0 to 100 scale, 0 is no effect, 100 is complete control) (kochia (Kochia scoparia) [1]; 31 g ai/ha): 0 | Plant response rating (0 to 100 scale, 0 is no effect, 100 is complete control) (kochia (Kochia scoparia) [1]; 125 g ai/ha): 0 | Plant response rating (scale of 0 to 100, 0 is no effect, 100 is complete control) [2]: 65 | Plant response rating (0 to 100 scale, 0 is no effect, 100 is complete control) (corn (Zea mays); 31 g ai/ha): 0 | Plant response rating (0 to 100 scale, 0 is no effect, 100 is complete control) (corn (Zea mays); 125 g ai/ha): 40 | Plant response rating (scale of 0 to 100, 0 is no effect, 100 is complete control) (rice (Oryza sativa)): 0 | Plant response rating (0 to 100 scale, 0 is no effect, 100 is complete control) ([3]; 31 g ai/ha): 0 | Plant response rating (0 to 100 scale, 0 is no effect, 100 is complete control) ([3]; 125 g ai/ha): 30 | Plant response rating (0 to 100 scale, 0 is no effect, 100 is complete control) ([4]; 31 g ai/ha): 0 | Plant response rating (0 to 100 scale, 0 is no effect, 100 is complete control) ([4]; 125 g ai/ha): 10 | Plant response rating (0 to 100 scale, 0 is no effect, 100 is complete control) ([5]; 31 g ai/ha): 50 | Plant response rating (0 to 100 scale, 0 is no effect, 100 is complete control) ([5]; 125 g ai/ha): 90 | Plant response rating (0 to 100 scale, 0 is no effect, 100 is complete control) ([6]; 31 g ai/ha): 0 | Plant response rating (0 to 100 scale, 0 is no effect, 100 is complete control) ([6]; 125 g ai/ha): 0 | Plant response rating (0 to 100 scale, 0 is no effect, 100 is complete control) (kochia (Kochia scoparia) [7]; 31 g ai/ha): 0 | Plant response rating (0 to 100 scale, 0 is no effect, 100 is complete control) (kochia (Kochia scoparia) [7]; 125 g ai/ha): 60 | Plant response rating (0 to 100 scale, 0 is no effect, 100 is complete control) ([8]; 31 g ai/ha): 80 | Plant response rating (0 to 100 scale, 0 is no effect, 100 is complete control) ([8]; 125 g ai/ha): 100 | Plant response rating (0 to 100 scale, 0 is no effect, 100 is complete control) ([9]; 31 g ai/ha): 50 | Plant response rating (0 to 100 scale, 0 is no effect, 100 is complete control) ([9]; 125 g ai/ha): 100 | Plant response rating (scale of 0 to 100, 0 is no effect, 100 is complete control) [10]: 0 | Plant response rating (0 to 100 scale, 0 is no effect, 100 is complete control) ([11]; 31 g ai/ha): 40 | Plant response rating (0 to 100 scale, 0 is no effect, 100 is complete control) ([11]; 125 g ai/ha): 80 | Plant response rating (0 to 100 scale, 0 is no effect, 100 is complete control) ([12]; 31 g ai/ha): 10 | Plant response rating (0 to 100 scale, 0 is no effect, 100 is complete control) ([12]; 125 g ai/ha): 50 | Plant response rating (scale of 0 to 100, 0 is no effect, 100 is complete control) [13]: 30 | Plant response rating (0 to 100 scale, 0 is no effect, 100 is complete control) ([14]; 31 g ai/ha): 0 | Plant response rating (0 to 100 scale, 0 is no effect, 100 is complete control) ([14]; 125 g ai/ha): 100 | Plant response rating (0 to 100 scale, 0 is no effect, 100 is complete control) ([15]; 31 g ai/ha): 20 | Plant response rating (0 to 100 scale, 0 is no effect, 100 is complete control) ([15]; 125 g ai/ha): 60 | Plant response rating (0 to 100 scale, 0 is no effect, 100 is complete control) ([16]; 31 g ai/ha): 40 | Plant response rating (0 to 100 scale, 0 is no effect, 100 is complete control) ([16]; 125 g ai/ha): 80 | Plant response rating (0 to 100 scale, 0 is no effect, 100 is complete control) ([17]; 31 g ai/ha): 0 | Plant response rating (0 to 100 scale, 0 is no effect, 100 is complete control) ([17]; 125 g ai/ha): 0 | Plant response rating (0 to 100 scale, 0 is no effect, 100 is complete control) ([18]; 31 g ai/ha): 0 | Plant response rating (0 to 100 scale, 0 is no effect, 100 is complete control) ([18]; 125 g ai/ha): 0
